Source: US4946858A, “Novel spirosuccinimides as aldose reductase inhibitors and antihyperglycemic agents” (American Home Products Corporation, priority 1989, dated 1990)
Like-named read-outs stand apart in the source and are kept apart here.

Key:
aldose reductase = molecular target: T1, aldose reductase (Bos taurus, UniProt P16116); test: In vitro inhibition of aldose reductase (modified Hayman and Kinoshita procedure, enzyme from bovine lens); type: biochemical; settings: read-out: % Inhibition in Vitro
T1 construct: preparation of the enzyme from bovine lens; from tissue; host or cells: bovine lens
Text: In the present case the procedure of Hayman and Kinoshita was modified in that the final chromatography step was omitted in the preparation of the enzyme from bovine lens.

galactosemic rats = test: Lowering of galactitol (dulcitol) accumulation in tissues of galactosemic rats; type: in vivo, rat (Sprague-Dawley); settings: for % Lowering of dulcitol accumulation In Vivo, % D (diaphragm) / % Lowering of dulcitol accumulation In Vivo, % L (lens) / % Lowering of dulcitol accumulation In Vivo, % N (sciatic nerve): 4 days, vs untreated galactosemic rats
Text: The aldose reductase inhibiting property of the compounds of this invention and the utilization of the compounds in preventing, diminishing and alleviating diabetic complications by lowering polyol accumulation were also demonstrable in experiments using galactosemic rats, see Dvornik et al, Science, 182, 1146 (1973). Such experiments are exemplified hereinbelow after the listing of the following general comments pertaining to these experiments:
(a) Four or more groups of six male rats, 50-70 g, Sprague-Dawley strain, were used. The first group, the control group, was fed a mixture of laboratory chow (rodent Laboratory Chow, Purina) and glucose at 20% (w/w %) concentration. The untreated galactosemic group and the drug-treated groups were fed a similar diet in which galactose is substituted for glucose. The test compound was either admixed to the diet or administered by gavage. In experiments involving compound administration in the diet, the average dose administered was calculated from the actual food intake of the animals in each group. The concentration of galactose in the diet of the treated groups was the same as that for the untreated galactosemic groups.
(b) After four days, the amimals were killed by decapitation. The eyeballs were removed and punctured with a razor blade; the freed lenses were rolled gently on filter paper and weighed. The sciatic nerves were dissected as completely as possible and weighed. Both tissues when frozen can be kept up to two weeks before being analyzed for galactitol.
(c) The polyol determination was performed by a modification of the procedure of M. Kraml and L. Cosyns, Clin. Biochem., 2, 373 (1969). Only two minor reagent changes were made: (a) the rinsing mixture was an aqueous 5% (w/v) trichloroacetic acid solution and (b) the stock solution was prepared by dissolving 25 mg of dulcitol in 100 mL of an aqueous trichloroacetic acid solution. [N.B.: For each experiment the average value found in the tissue from rats fed the glucose diet was subtracted from the individual values found in the corresponding tissue in galactose-fed rats to obtain the amount of polyol accumulated.]
The figures under L, N, and D represent the percentage decrease of galactitol accumulation in the tissues of the lens, sciatic nerve, and diaphragm, respectively, for treated rats as compared to untreated rats.

Row | inhibition at 10 µM (aldose reductase; 10^-5 M) | inhibition at 1 µM (aldose reductase; 10^-6 M) | Structure (SMILES) | other results
1 | 83% | 45% | O=C1NC(=O)[C@@]2(CCOc3ccc(F)cc32)N1 [Sorbinil, [(4S)2,3-dihydro-6-fluorospiro[4H1-benzopyran-4,4imidazoli-dine2',5dione, reference compound] | % Lowering of dulcitol accumulation In Vivo, % D (diaphragm) (galactosemic rats; 4 mg/kg): 69%; % Lowering of dulcitol accumulation In Vivo, % L (lens) (galactosemic rats; 4 mg/kg): 46%; % Lowering of dulcitol accumulation In Vivo, % N (sciatic nerve) (galactosemic rats; 4 mg/kg, sciatic nerve): 55%
2 | 91% | 77% | CN1C(=O)c2ccc([N+](=O)[O-])cc2C12CC(=O)NC2=O (stereo not drawn) [Example 132] | –
3 | 78% | 37% | CCN1C(=O)c2ccc(Cl)cc2C12CC(=O)NC2=O (stereo not drawn) [Example 128] | –
4 | 49% | 12% | CCCN1C(=O)c2cc(Cl)c(Cl)cc2C12CC(=O)NC2=O (stereo not drawn) [Example 131] | –
5 | 91% | 80% | CN1C(=O)c2ccc(Cl)cc2C12CC(=O)NC2=O (stereo not drawn) [Example 102, 6-Chloro-2-methylspiro[1H-isoindole-1,3'-pyrrolidine]-2',3,5'(2H)-trione] | % Lowering of dulcitol accumulation In Vivo, % D (diaphragm) (galactosemic rats; 3 mg/kg): 43%; % Lowering of dulcitol accumulation In Vivo, % L (lens) (galactosemic rats; 3 mg/kg): 9%; % Lowering of dulcitol accumulation In Vivo, % N (sciatic nerve) (galactosemic rats; 3 mg/kg, sciatic nerve): 38%; comparison with sorbinil and tolrestat in the sciatic nerve (galactosemic rats; 3 mg/kg/day, sciatic nerve): comparable results to sorbinil at 4 mg/kg/day and tolrestat at 3 mg/kg/day in the sciatic nerve; % Lowering of dulcitol accumulation In Vivo, % D (diaphragm) (galactosemic rats; 25 mg/kg): 81%; % Lowering of dulcitol accumulation In Vivo, % L (lens) (galactosemic rats; 25 mg/kg): 51%; % Lowering of dulcitol accumulation In Vivo, % N (sciatic nerve) (galactosemic rats; 25 mg/kg, sciatic nerve): 84%
6 | 84% | 59% | Cc1cccc2c1C(=O)N(C)C21CC(=O)NC1=O (stereo not drawn) [Example 135, 2,4-dimethylspiro[1H-isoindole-1,3'-pyrrolidine]-2',3,5'(2H)-trione] | % Lowering of dulcitol accumulation In Vivo, % D (diaphragm) (galactosemic rats; 3 mg/kg): 37%; % Lowering of dulcitol accumulation In Vivo, % D (diaphragm) (galactosemic rats; 6 mg/kg): 57%; % Lowering of dulcitol accumulation In Vivo, % N (sciatic nerve) (galactosemic rats; 6 mg/kg, sciatic nerve): 50%; % Lowering of dulcitol accumulation In Vivo, % D (diaphragm) (galactosemic rats; 10 mg/kg): 69%; % Lowering of dulcitol accumulation In Vivo, % L (lens) (galactosemic rats; 10 mg/kg): 29%; % Lowering of dulcitol accumulation In Vivo, % N (sciatic nerve) (galactosemic rats; 10 mg/kg, sciatic nerve): 63%
7 | – | 45% | CN1C(=O)c2ccccc2C12CC(=O)NC2=O (stereo not drawn) [Example 117] | –
8 | 95% | 82% | CN1C(=O)c2cc3ccccc3cc2C12CC(=O)NC2=O (stereo not drawn) [Example 124, 2-methylspiro[1H-benz[f]isoindole-1,3'-pyrrolidine]-2',3,5'(2H)-trione] | % Lowering of dulcitol accumulation In Vivo, % D (diaphragm) (galactosemic rats; 10 mg/kg): 59%; % Lowering of dulcitol accumulation In Vivo, % L (lens) (galactosemic rats; 10 mg/kg): 14%; % Lowering of dulcitol accumulation In Vivo, % N (sciatic nerve) (galactosemic rats; 10 mg/kg, sciatic nerve): 47%
9 | 85% | 70% | O=C1CC2(C(=O)N1)c1cc(Cl)ccc1C(=O)N2Cc1ccc(Br)cc1F (stereo not drawn) [Example 121] | –
10 | 87% | 60% | CSc1ccc2c(c1)C(=O)N(C)C21CC(=O)NC1=O (stereo not drawn) [Example 130] | –
11 | – | – | COc1ccc2c(C(=S)N(C)CC(=O)O)cccc2c1C(F)(F)F [Tolrestat, reference compound] | % Lowering of dulcitol accumulation In Vivo, % D (diaphragm) (galactosemic rats; 3 mg/kg): 80%; % Lowering of dulcitol accumulation In Vivo, % N (sciatic nerve) (galactosemic rats; 3 mg/kg, sciatic nerve): 30%
12 | 57% | 20% | O=C1CC2(C(=O)N1)c1ccccc1S(=O)(=O)N2Cc1ccc2ccccc2c1 (stereo not drawn) [Example 113] | –
13 | 90% | 81% | CN1C(=O)c2cc(-c3ccccc3)ccc2C12CC(=O)NC2=O (stereo not drawn) [Example 136] | % Lowering of dulcitol accumulation In Vivo, % D (diaphragm) (galactosemic rats; 3 mg/kg): 29%; % Lowering of dulcitol accumulation In Vivo, % D (diaphragm) (galactosemic rats; 6 mg/kg): 43%; % Lowering of dulcitol accumulation In Vivo, % L (lens) (galactosemic rats; 6 mg/kg): 13%; % Lowering of dulcitol accumulation In Vivo, % N (sciatic nerve) (galactosemic rats; 6 mg/kg, sciatic nerve): 27%; % Lowering of dulcitol accumulation In Vivo, % D (diaphragm) (galactosemic rats; 9 mg/kg): 55%; % Lowering of dulcitol accumulation In Vivo, % L (lens) (galactosemic rats; 9 mg/kg): 6%; % Lowering of dulcitol accumulation In Vivo, % N (sciatic nerve) (galactosemic rats; 9 mg/kg, sciatic nerve): 34%
14 | 89% | 61% | Cc1ccc2c(c1)C(=O)N(C)C21CC(=O)NC1=O (stereo not drawn) [Example 133] | –
15 | 45% | 5% | O=C1CC2(C(=O)N1)c1ccccc1S(=O)(=O)N2Cc1ccccc1 (stereo not drawn) [Example 103] | –
16 | 88% | 72% | CN1C(=O)c2cc(Cl)ccc2C12CC(=O)NC2=O (stereo not drawn) [Example 120, 5-chloro-2-methylspiro[1H-isoindole-1,3'-pyrrolidine]-2',3,5'(2H)-trione] | % Lowering of dulcitol accumulation In Vivo, % N (sciatic nerve) (galactosemic rats; 3 mg/kg, sciatic nerve): 21%; % Lowering of dulcitol accumulation In Vivo, % D (diaphragm) (galactosemic rats; 81 mg/kg): 80%; % Lowering of dulcitol accumulation In Vivo, % L (lens) (galactosemic rats; 81 mg/kg): 54%; % Lowering of dulcitol accumulation In Vivo, % N (sciatic nerve) (galactosemic rats; 81 mg/kg, sciatic nerve): 77%
17 | 40% | 6% | CN1C2(CC(=O)NC2=O)c2ccccc2S1(=O)=O (stereo not drawn) [Example 101, 2,3-Dihydro-2-methylspiro[benzisothiazole-3,3'-pyrrolidine]-2',5'-dione 1,1-Dioxide] | –
18 | 87% | 49% | COC(=O)c1ccc2c(c1)C1(CC(=O)NC1=O)N(C)C2=O (stereo not drawn) [Example 134] | –
19 | 59% | 25% | O=C1CC2(C(=O)N1)c1ccccc1S(=O)(=O)N2Cc1ccc2ccccc2c1Br (stereo not drawn) [Example 112] | –
20 | 88% | 57% | CN1C(=O)c2cccc(Cl)c2C12CC(=O)NC2=O (stereo not drawn) [Example 125] | % Lowering of dulcitol accumulation In Vivo, % D (diaphragm) (galactosemic rats; 3 mg/kg): 23%; % Lowering of dulcitol accumulation In Vivo, % D (diaphragm) (galactosemic rats; 6 mg/kg): 37%; % Lowering of dulcitol accumulation In Vivo, % L (lens) (galactosemic rats; 6 mg/kg): 7%; % Lowering of dulcitol accumulation In Vivo, % N (sciatic nerve) (galactosemic rats; 6 mg/kg, sciatic nerve): 21%; % Lowering of dulcitol accumulation In Vivo, % D (diaphragm) (galactosemic rats; 10 mg/kg): 47%; % Lowering of dulcitol accumulation In Vivo, % L (lens) (galactosemic rats; 10 mg/kg): 13%; % Lowering of dulcitol accumulation In Vivo, % N (sciatic nerve) (galactosemic rats; 10 mg/kg, sciatic nerve): 32%
21 | 92% | 71% | CN1C(=O)c2cc(Br)ccc2C12CC(=O)NC2=O (stereo not drawn) [Example 127] | –
22 | 83% | 56% | COc1ccc2c(c1)C(=O)N(C)C21CC(=O)NC1=O (stereo not drawn) [Example 129] | –

Row | Structure (SMILES) | inhibition at 10 µM (aldose reductase; 10^-5 M) | inhibition at 1 µM (aldose reductase; 10^-6 M) | other results
23 | CN1C(=O)c2ccc(F)cc2C12CC(=O)NC2=O (stereo not drawn) [Example 123] | – | 74% | inhibition at 10 µM (aldose reductase): 93%
24 | CN1C(=O)c2c(Cl)cccc2C12CC(=O)NC2=O (stereo not drawn) [Example 126] | 85% | – | inhibition at 1 µM (aldose reductase): 65%
